Data from patent US6596288B2, “Use of sterols as active ingredient in a cosmetic composition against adiposity” (Codif International SA, priority 2000, dated 2003).

What was measured:
human adipocytes [1] = experiment: incorporation of [2-14C]-acetate into lipids (LIPOGENESIS) by isolated human adipocytes; format: cell-based
Description: (§1) In these experiments, adipocytes were isolated from abdominal restorative surgeries sampled in women. The experiment took place the day of the sampling. Fragments of adipose tissues were incubated for 30 minutes at 37° C. in the presence of collagenase, then the isolated adipocytes were washed and taken up in medium MEM buffered with bicarbonate, in the presence of antibiotics (penicillin/streptomycin), glutamine (2 mM), and delipidated bovine serum albumin (0.5%).
The tests concerning the effect on lipogenesis were then conducted in the following manner.
Adipocytes (90 μl of ¼ diluted suspension) were incubated for 1 hour, either with a control medium (4 hours), with molecules known to inhibit the neosynthesis of fatty acids (EPA), as for example […], or with previously diluted extracts (added under 100 μl).
As to the sterols and to the lipidic extracts of plants or algae, they were diluted in mineral oil which has been verified to not inhibit incorporation or extraction of adipocyte lipids. Then, 10 μl of [2^14C]-acetate, 50 μCi/ml, were added, and the samples were either cultivated at 37° C. in the presence of 5% CO2 for 4 additional hours, or immediately frozen at −80° C. (control t0).
At the times indicated, the samples were frozen at −80° C. The lipids were then extracted according to the method of Bligh and Dyer (extraction methanol/chloroform/water), then dried under nitrogen. The radioactivity incorporated was then counted by liquid scintillation.

human adipocytes [2] = experiment: liberation of NEFA (non-esterified fatty acids) (LIPOLYSIS) by isolated human adipocytes; format: cell-based; settings: for % Control (NEFA liberation) / Average of the NEFA: 2 hours at 37° C.
Description: as §1
As to the tests concerning the effect on lipolysis, they were conducted in the following manner. Adipocytes (540 μl of suspension) were incubated for 2 hours in a water bath at 37° C., with agitation, in the presence of 60 μl of different sterols. The experiments were carried out in triplicate.
Then, the non-esterified fatty acids (AGNE) released by the adipocytes were determined in the sub-adipocyte media. The values obtained were treated by an analysis of variance (ANOVA) by means of the multiple comparison test of Dunnett. The values were considered as significant when the probability p was less than the threshold of significance 0.05.

[3] = 0.01 mM (10^−5 M), absence of insulin, 4 h
[4] = 0.01 mM (10^−5 M), presence of insulin (1 nM), 4 h
[5] = 0.1 mM (10^−4 M), absence of insulin, 4 h
[6] = 0.1 mM (10^−4 M), presence of insulin (1 nM), 4 h
[7] = 1 mM (10^−3 M), absence of insulin, 4 h
[8] = 1 mM (10^−3 M), presence of insulin (1 nM), 4 h

Molecule: CC[C@H](/C=C/[C@@H](C)[C@H]1CC[C@H]2[C@@H]3CC=C4C[C@@H](O)CC[C@]4(C)[C@H]3CC[C@]12C)C(C)C [Stigmasterol, stigmasterol]
- % control (incorporation of acetate) (human adipocytes [1]; [3]): 95%
- % inhibition (incorporation of acetate) (human adipocytes [1]; [3]): weak and non-significant
- Average of cpm (incorporation of acetate) (human adipocytes [1]; [3]): 198442 cpm
- cpm - t0 test (incorporation of acetate) (human adipocytes [1]; [3]): 191977 cpm
- % control (incorporation of acetate) (human adipocytes [1]; [4]): 98%
- % inhibition (incorporation of acetate) (human adipocytes [1]; [4]): 2%
- Average of cpm (incorporation of acetate) (human adipocytes [1]; [4]): 235529 cpm
- cpm - t0 test (incorporation of acetate) (human adipocytes [1]; [4]): 229064 cpm
- % inhibition (incorporation of acetate) (human adipocytes [1]; 0.01 mM (10^−5 M), presence of insulin (1 nM), 4 h, listed as stigmasterol): less than 5%
- % control (incorporation of acetate) (human adipocytes [1]; [5]): 96%
- % inhibition (incorporation of acetate) (human adipocytes [1]; [5]): weak and non-significant
- Average of cpm (incorporation of acetate) (human adipocytes [1]; [5]): 200467 cpm
- cpm - t0 test (incorporation of acetate) (human adipocytes [1]; [5]): 194002 cpm
- % control (incorporation of acetate) (human adipocytes [1]; [6]): 97%
- % inhibition (incorporation of acetate) (human adipocytes [1]; [6]): 3%
- Average of cpm (incorporation of acetate) (human adipocytes [1]; [6]): 234524 cpm
- cpm - t0 test (incorporation of acetate) (human adipocytes [1]; [6]): 228059 cpm
- % control (incorporation of acetate) (human adipocytes [1]; [7]): 101%
- % inhibition (incorporation of acetate) (human adipocytes [1]; [7]): weak and non-significant
- Average of cpm (incorporation of acetate) (human adipocytes [1]; [7]): 210055 cpm
- cpm - t0 test (incorporation of acetate) (human adipocytes [1]; [7]): 203590 cpm
- % control (incorporation of acetate) (human adipocytes [1]; [8]): 94%
- % inhibition (incorporation of acetate) (human adipocytes [1]; [8]): 6%
- Average of cpm (incorporation of acetate) (human adipocytes [1]; [8]): 227385 cpm
- cpm - t0 test (incorporation of acetate) (human adipocytes [1]; [8]): 220920 cpm
- inhibition at 10 µM (human adipocytes [1]; Homo sapiens, Adipocyte, 4 h, 0.01 mM (10^−5 M), absence of insulin): 5%
- inhibition at 100 µM (human adipocytes [1]; Homo sapiens, Adipocyte, 4 h, 0.1 mM (10^−4 M), absence of insulin): 4%
- inhibition at 100 µM (human adipocytes [1]; Homo sapiens, Adipocyte, 4 h, 0.1 mM (10^−4 M), presence of insulin (1 nM)): < 5%
- inhibition at 1000 µM (human adipocytes [1]; Homo sapiens, Adipocyte, 4 h, 1 mM (10^−3 M), absence of insulin): 0%
- inhibition at 1000 µM (human adipocytes [1]; Homo sapiens, Adipocyte, 4 h, 1 mM (10^−3 M), presence of insulin (1 nM)): < 5%
- liberation of fatty acids by isolated human adipocytes (conclusion) (human adipocytes [2]): increases the liberation of fatty acids
- % Control (NEFA liberation) (human adipocytes [2]; 10^−2 M): 112%
- Average of the NEFA (human adipocytes [2]; 10^−2 M): 158 µM
- % Control (NEFA liberation) (human adipocytes [2]; 10^−3 M (1 mM)): 126%
- Average of the NEFA (human adipocytes [2]; 10^−3 M (1 mM)): 178 µM
- % Control (NEFA liberation) (human adipocytes [2]; 10^−4 M): 133%
- Average of the NEFA (human adipocytes [2]; 10^−4 M): 189 µM
- % Control (NEFA liberation) (human adipocytes [2]; 10^−5 M): 128%
- Average of the NEFA (human adipocytes [2]; 10^−5 M): 180 µM
- % Control (NEFA liberation) (human adipocytes [2]; 10^−6 M (1 μM)): 112%
- Average of the NEFA (human adipocytes [2]; 10^−6 M (1 μM)): 158 µM
- effect on liberation of NEFA (human adipocytes [2]; 10^−6 M and 10^−2 M): did not show significant effect

Molecule: CC[C@H](CC[C@@H](C)[C@H]1CC[C@H]2[C@@H]3CC=C4C[C@@H](O)CC[C@]4(C)[C@H]3CC[C@]12C)C(C)C [Beta-sitosterol, beta-sitosterol]
- incorporation of acetate by isolated human adipocytes (conclusion) (human adipocytes [1]): inhibit the incorporation of acetate
- % control (incorporation of acetate) (human adipocytes [1]; [3]): 96%
- % inhibition (incorporation of acetate) (human adipocytes [1]; [3]): 4%
- Average of cpm (incorporation of acetate) (human adipocytes [1]; [3]): 200044 cpm
- cpm - t0 test (incorporation of acetate) (human adipocytes [1]; [3]): 193579 cpm
- % inhibition (incorporation of acetate) (human adipocytes [1]; 0.01 mM (10^−5 M), absence of insulin, 4 h, listed as beta-sitosterol): weak and non-significant
- % control (incorporation of acetate) (human adipocytes [1]; [4]): 89%
- Average of cpm (incorporation of acetate) (human adipocytes [1]; [4]): 216417 cpm
- cpm - t0 test (incorporation of acetate) (human adipocytes [1]; [4]): 209952 cpm
- % control (incorporation of acetate) (human adipocytes [1]; [5]): 95%
- % inhibition (incorporation of acetate) (human adipocytes [1]; [5]): 5%
- Average of cpm (incorporation of acetate) (human adipocytes [1]; [5]): 198694 cpm
- cpm - t0 test (incorporation of acetate) (human adipocytes [1]; [5]): 192229 cpm
- % inhibition (incorporation of acetate) (human adipocytes [1]; 0.1 mM (10^−4 M), absence of insulin, 4 h, listed as beta-sitosterol): weak and non-significant
- % control (incorporation of acetate) (human adipocytes [1]; [6]): 93%
- Average of cpm (incorporation of acetate) (human adipocytes [1]; [6]): 224445 cpm
- cpm - t0 test (incorporation of acetate) (human adipocytes [1]; [6]): 217980 cpm
- % control (incorporation of acetate) (human adipocytes [1]; [7]): 84%
- % inhibition (incorporation of acetate) (human adipocytes [1]; [7]): 16%
- Average of cpm (incorporation of acetate) (human adipocytes [1]; [7]): 175711 cpm
- cpm - t0 test (incorporation of acetate) (human adipocytes [1]; [7]): 169246 cpm
- % control (incorporation of acetate) (human adipocytes [1]; [8]): 83%
- % inhibition (incorporation of acetate) (human adipocytes [1]; [8]): 17%
- Average of cpm (incorporation of acetate) (human adipocytes [1]; [8]): 201168 cpm
- cpm - t0 test (incorporation of acetate) (human adipocytes [1]; [8]): 194703 cpm
- % Control (NEFA liberation) (human adipocytes [2]; 10^−2 M): 92%
- Average of the NEFA (human adipocytes [2]; 10^−2 M): 131 µM
- % Control (NEFA liberation) (human adipocytes [2]; 10^−3 M (1 mM)): 103%
- Average of the NEFA (human adipocytes [2]; 10^−3 M (1 mM)): 145 µM
- % Control (NEFA liberation) (human adipocytes [2]; 10^−4 M): 96%
- Average of the NEFA (human adipocytes [2]; 10^−4 M): 135 µM
- % Control (NEFA liberation) (human adipocytes [2]; 10^−5 M): 107%
- Average of the NEFA (human adipocytes [2]; 10^−5 M): 151 µM
- % Control (NEFA liberation) (human adipocytes [2]; 10^−6 M (1 μM)): 110%
- Average of the NEFA (human adipocytes [2]; 10^−6 M (1 μM)): 156 µM
- stimulation of lipolysis (human adipocytes [2]; 10^−6 M, 10^−5 M, 10^−4 M, 10^−3 M and 10^−2 M): did not stimulate lipolysis

Molecule: insulin
- increase of the incorporation of acetate (human adipocytes [1]; 1 nM of insulin): 16%
- increase of the incorporation of acetate (human adipocytes [1]; 100 nM of insulin, another donor): 120%

Molecule: CC/C=C\C/C=C\C/C=C\C/C=C\C/C=C\CCCC(=O)O [EPA, eicosapentanoic acid, reference compound]
- % control (incorporation of acetate) (human adipocytes [1]; [5]): 18%
- % inhibition (incorporation of acetate) (human adipocytes [1]; [5]): 82%
- Average of cpm (incorporation of acetate) (human adipocytes [1]; [5]): 43253 cpm
- cpm - t0 test (incorporation of acetate) (human adipocytes [1]; [5]): 36788 cpm
- % control (incorporation of acetate) (human adipocytes [1]; [6]): 38%
- % inhibition (incorporation of acetate) (human adipocytes [1]; [6]): 62%
- Average of cpm (incorporation of acetate) (human adipocytes [1]; [6]): 96244 cpm
- cpm - t0 test (incorporation of acetate) (human adipocytes [1]; [6]): 89779 cpm
- % control (incorporation of acetate) (human adipocytes [1]; [7]): 3%
- % inhibition (incorporation of acetate) (human adipocytes [1]; [7]): 97%
- Average of cpm (incorporation of acetate) (human adipocytes [1]; [7]): 1287 cpm
- cpm - t0 test (incorporation of acetate) (human adipocytes [1]; [7]): 6373 cpm
- % control (incorporation of acetate) (human adipocytes [1]; [8]): 3%
- % inhibition (incorporation of acetate) (human adipocytes [1]; [8]): 97%
- Average of cpm (incorporation of acetate) (human adipocytes [1]; [8]): 13384 cpm
- cpm - t0 test (incorporation of acetate) (human adipocytes [1]; [8]): 6919 cpm

Molecule: Cn1c(=O)c2[nH]cnc2n(C)c1=O [Theophylline, theophylline, reference compound]
- stimulation of lipolysis (human adipocytes [2]; 1 nM, p<0.05): stimulated the lipolysis
- % Control (NEFA liberation) (human adipocytes [2]; 10^−3 M (1 mM)): 390%
- Average of the NEFA (human adipocytes [2]; 10^−3 M (1 mM)): 551 µM

Molecule: CC(C)NCC(O)c1ccc(O)c(O)c1 (stereo not drawn) [Isoproterenol, isoproterenol, reference compound]
- stimulation of lipolysis (human adipocytes [2]; 1 μM, p<0.05): stimulated the lipolysis
- % Control (NEFA liberation) (human adipocytes [2]; 10^−6 M (1 μM)): 342%
- Average of the NEFA (human adipocytes [2]; 10^−6 M (1 μM)): 483 µM
